Values joined by “and” are separate entries in the source; they are usually repeats but may differ in a detail not shown here. Equal entries are not always repeated. Where two headings read alike, the source gives them in different places.
What was measured:
[1] = Brain and plasma concentration in mice; type: in vivo; details: for half-life: mouse, other: injected (site of injection not given)
Method: Specifically, mice were injected with a single dose of compound and the concentration of compound was measured in the brain and plasma of mice at 8 time points. The samples were analyzed by LC-MS/MS.

[2] = target: HDAC8 (Homo sapiens (Human), UniProt Q9BY41); assay: Caliper HDAC enzymatic endpoint assay, HDAC8; type: biochemical; details: Table 2C; read-out: HDAC8 IC50 after 0 hr preincubation
Sequence of HDAC8 (Q9BY41 whole entry): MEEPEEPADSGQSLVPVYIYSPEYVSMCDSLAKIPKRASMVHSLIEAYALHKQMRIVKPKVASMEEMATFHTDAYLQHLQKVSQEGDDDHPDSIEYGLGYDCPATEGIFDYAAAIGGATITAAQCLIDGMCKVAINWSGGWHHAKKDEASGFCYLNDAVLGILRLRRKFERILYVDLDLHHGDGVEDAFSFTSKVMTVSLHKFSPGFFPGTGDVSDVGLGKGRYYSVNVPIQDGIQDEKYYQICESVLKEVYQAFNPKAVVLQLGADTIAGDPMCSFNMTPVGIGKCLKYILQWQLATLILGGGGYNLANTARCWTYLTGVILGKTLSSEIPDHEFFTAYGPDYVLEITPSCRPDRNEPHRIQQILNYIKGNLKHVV
Method: (§1) The Caliper HDAC Assay Buffer (acronym HAB, 1 liter) was prepared as follows:
(§2) Substrate B was prepared as 2 mM in 100% DMSO. Its final concentration in the assay for HDACs 4, 5, 7, 8, 9 is 2 μM.
(§3) LBH was used as quench inhibitor to stop the reaction at the end point.
IC50 values are in micromolar.

[3] = test system: Human islets; assay: Glucolipotoxicity-induced apoptosis in human islets, caspase-3 activity assay; type: cell-based; details: 10 μM, 0.5 mM palmitate and 25 mM glucose, 72 h
Description: Human islets were provided by the Integrated Islet Distribution Program administered by the City of Hope Hospital (IIDP: http://iidp.coh.org/). The average reported purity was 85%±5.2 and viability was 94%±0.6 (age 50±5 years, body mass index 31±2.7 kg/m2). Causes of death were head trauma (n=3), stroke and anoxia. Islets were dissociated and seeded (30,000 cells/well) into black optical 96-well plates (Corning Life Sciences) that coated with HTB-9 extracellular matrix as previously described. (Walpita, D., et al. (2012) J. Biomol. Screen. 17, 509-518.) The dissociated islet cell cultures were allowed to attach and grow in CMRL media in 10% FBS for 3 days before exposure to palmitate (0.5 mM) and high glucose (25 mM) in medium with 1% BSA and without FBS for 72 hours.
Compounds of the invention protect against combined palmitate and high glucose induced apoptosis in INS-1E cells. […] Apoptosis was measured by caspase-3 activity assay.

[4] = target: T1, HDAC2 (Homo sapiens (Human), UniProt Q92769); assay: Kinetics of the inhibition of HDAC2
T1 sequence (Q92769 whole entry): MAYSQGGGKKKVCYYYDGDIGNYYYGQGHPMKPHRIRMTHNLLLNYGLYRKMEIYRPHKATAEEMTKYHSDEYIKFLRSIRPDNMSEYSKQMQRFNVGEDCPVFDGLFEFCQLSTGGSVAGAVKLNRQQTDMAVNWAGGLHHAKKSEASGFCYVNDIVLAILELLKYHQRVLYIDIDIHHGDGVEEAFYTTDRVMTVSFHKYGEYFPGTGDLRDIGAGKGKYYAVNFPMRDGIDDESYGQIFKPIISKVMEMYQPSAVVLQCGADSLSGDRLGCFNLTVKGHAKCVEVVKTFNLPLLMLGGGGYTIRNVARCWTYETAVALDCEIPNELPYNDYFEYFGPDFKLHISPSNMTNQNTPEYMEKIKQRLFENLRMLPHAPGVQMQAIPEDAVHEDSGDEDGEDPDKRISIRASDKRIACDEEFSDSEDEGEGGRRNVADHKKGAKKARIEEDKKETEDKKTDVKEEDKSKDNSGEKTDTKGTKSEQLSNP

[5] = target: T1, HDAC2; assay: Caliper HDAC enzymatic endpoint assay, HDAC2; type: biochemical
Method: (§4) Substrate A was prepared as 2 mM in DMSO. Its final concentration in the assay for HDACs 1, 2, 3, 6 is 2 μM.
(§5) Below is the HDAC and Substrate concentration used in this assay.

[6] = target: HDAC4 (Homo sapiens (Human), UniProt P56524); assay: Caliper HDAC enzymatic endpoint assay, HDAC4; type: biochemical; details: Table 2C; read-out: HDAC4 IC50 after 0 hr preincubation
Sequence of HDAC4 (P56524 whole entry): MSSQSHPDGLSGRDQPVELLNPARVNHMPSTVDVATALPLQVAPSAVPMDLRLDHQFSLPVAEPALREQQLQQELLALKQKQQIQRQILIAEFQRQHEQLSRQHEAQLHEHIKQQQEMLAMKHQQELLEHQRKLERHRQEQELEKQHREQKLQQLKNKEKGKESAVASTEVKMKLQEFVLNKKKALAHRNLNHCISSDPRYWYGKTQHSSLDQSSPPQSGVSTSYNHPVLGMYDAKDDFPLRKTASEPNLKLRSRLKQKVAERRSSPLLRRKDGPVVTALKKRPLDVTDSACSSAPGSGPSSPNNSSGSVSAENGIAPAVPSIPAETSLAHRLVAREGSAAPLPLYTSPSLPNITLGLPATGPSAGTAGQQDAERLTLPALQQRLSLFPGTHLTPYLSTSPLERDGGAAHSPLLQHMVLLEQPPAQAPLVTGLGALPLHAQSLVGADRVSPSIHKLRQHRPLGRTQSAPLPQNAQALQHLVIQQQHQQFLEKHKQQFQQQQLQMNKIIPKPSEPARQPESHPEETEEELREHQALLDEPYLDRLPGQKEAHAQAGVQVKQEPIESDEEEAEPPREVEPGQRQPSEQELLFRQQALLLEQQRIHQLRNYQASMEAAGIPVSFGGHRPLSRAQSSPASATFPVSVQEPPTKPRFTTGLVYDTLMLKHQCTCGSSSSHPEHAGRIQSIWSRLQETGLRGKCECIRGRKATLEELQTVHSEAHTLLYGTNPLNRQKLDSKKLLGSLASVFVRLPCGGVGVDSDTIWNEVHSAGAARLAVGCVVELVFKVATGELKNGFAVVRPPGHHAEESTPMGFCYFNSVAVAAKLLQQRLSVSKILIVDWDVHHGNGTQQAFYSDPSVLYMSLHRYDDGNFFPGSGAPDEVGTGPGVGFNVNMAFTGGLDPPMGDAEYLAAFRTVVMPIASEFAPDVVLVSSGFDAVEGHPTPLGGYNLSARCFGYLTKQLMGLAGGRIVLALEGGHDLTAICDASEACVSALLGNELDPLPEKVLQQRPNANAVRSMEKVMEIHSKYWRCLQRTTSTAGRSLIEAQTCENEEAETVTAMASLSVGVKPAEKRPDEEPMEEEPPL
Method: as §1, §2, §3
IC50 values are in micromolar.

[7] = test system: INS-1E cells; assay: Insulin gene Ins1 and Ins2 expression by qPCR; type: cell-based, rat; details: 10 μM, glucolipotoxicity, 24 h
Method: INS-1E cells (one million/well) were seeded in 6-well plates in 2 mL complete medium. After two days, medium was removed and cells were exposed to 2 mL medium/well with the indicated concentrations of palmitate, glucose, HDAC inhibitors and/or vehicle. RNA was purified (Qiagen) and cDNA synthesis performed done according to manufacturers' guidelines (Applied Biosystems) and real-time PCR performed using the SYBR green method (Applied Biosystems). Each cDNA sample in triplicate was subjected to two individual PCR amplifications either for the gene of interest or the reference gene β-actin. See table below for primer sequences. Compounds of the invention counteract glucolipotoxic reductions in insulin gene […] and […] expression. […] The gene expression in FIGS. 13A and 13B were analyzed by qPCR. […] Glucose-stimulated insulin secretion and total insulin content were assessed by ELISA. Data are presented as fold to CTRL+SEM, n=3-5, ns=not significant, *p<0.05, **p<0.01, ***p<0.001 vs. CTRL, #p<0.05, ##p<0.01, ###p<0.001 vs. respective treatment. ANOVA with Tukey- or Dunnet-corrected test, or Student's t-test (insulin content).

[8] = target: T2, HDAC3 (Homo sapiens (Human), UniProt O15379); assay: Caliper HDAC enzymatic endpoint assay, HDAC3; type: biochemical
T2 sequence (O15379 whole entry): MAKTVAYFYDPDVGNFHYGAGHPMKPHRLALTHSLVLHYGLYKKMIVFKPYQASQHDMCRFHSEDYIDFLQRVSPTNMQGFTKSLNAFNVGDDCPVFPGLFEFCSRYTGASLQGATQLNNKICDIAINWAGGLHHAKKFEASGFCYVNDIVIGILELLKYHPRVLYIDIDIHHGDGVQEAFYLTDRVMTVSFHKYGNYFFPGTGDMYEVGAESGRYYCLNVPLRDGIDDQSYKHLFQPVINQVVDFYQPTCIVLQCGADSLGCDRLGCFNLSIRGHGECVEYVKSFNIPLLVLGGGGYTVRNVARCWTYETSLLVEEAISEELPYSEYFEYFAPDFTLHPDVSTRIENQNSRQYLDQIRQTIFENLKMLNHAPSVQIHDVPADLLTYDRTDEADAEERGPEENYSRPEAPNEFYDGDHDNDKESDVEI
T2 sequence (Q9Y618 395-489 partner): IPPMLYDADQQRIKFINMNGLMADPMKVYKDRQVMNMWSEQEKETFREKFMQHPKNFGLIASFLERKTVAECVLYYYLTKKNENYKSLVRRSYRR
Method: as §4, §5

[9] = test system: INS-1E cells; assay: Insulin assay (glucose-stimulated insulin secretion and insulin content, ELISA); type: cell-based, rat; details: 10 μM, palmitate and 25 mM glucose, 24 h
Method: INS-1E cells (20,000 cells/well) were seeded in 96-well plates in 100 uL complete medium. After overnight incubation media was removed and cells were exposed to 100 uL medium/well with the indicated concentrations of palmitate, glucose, HDAC inhibitors and/or vehicle. […] Cells were subsequently incubated with KRBH buffer containing 2 mM or 16 mM glucose for 1 hour. Supernatants were collected for measurement of insulin. For measuring insulin content, cells were washed in PBS and lysed using Passive Lysis Buffer. Insulin was measured with a rat insulin ELISA kit (Alpco). Total insulin content was normalized to total protein (Bradford assay). Each condition was assayed in biological duplicates. Specifically, HDAC3 inhibition is shown to preserve the glucose-induced insulin secretory function. […] FIGS. 13A to 13B are a series of bar graphs. […] Glucose-stimulated insulin secretion and total insulin content were assessed by ELISA. Data are presented as fold to CTRL+SEM, n=3-5, ns=not significant, *p<0.05, **p<0.01, ***p<0.001 vs. CTRL, #p<0.05, ##p<0.01, ###p<0.001 vs. respective treatment. ANOVA with Tukey- or Dunnet-corrected test, or Student's t-test (insulin content).

[10] = target: T2, HDAC3; assay: Kinetics of the inhibition of HDAC3
[11] = target: HDAC1 (Homo sapiens (Human), UniProt Q13547); assay: Kinetics of the inhibition of HDAC1; details: for T1/2: HDAC1 residence
Sequence of HDAC1 (Q13547 whole entry): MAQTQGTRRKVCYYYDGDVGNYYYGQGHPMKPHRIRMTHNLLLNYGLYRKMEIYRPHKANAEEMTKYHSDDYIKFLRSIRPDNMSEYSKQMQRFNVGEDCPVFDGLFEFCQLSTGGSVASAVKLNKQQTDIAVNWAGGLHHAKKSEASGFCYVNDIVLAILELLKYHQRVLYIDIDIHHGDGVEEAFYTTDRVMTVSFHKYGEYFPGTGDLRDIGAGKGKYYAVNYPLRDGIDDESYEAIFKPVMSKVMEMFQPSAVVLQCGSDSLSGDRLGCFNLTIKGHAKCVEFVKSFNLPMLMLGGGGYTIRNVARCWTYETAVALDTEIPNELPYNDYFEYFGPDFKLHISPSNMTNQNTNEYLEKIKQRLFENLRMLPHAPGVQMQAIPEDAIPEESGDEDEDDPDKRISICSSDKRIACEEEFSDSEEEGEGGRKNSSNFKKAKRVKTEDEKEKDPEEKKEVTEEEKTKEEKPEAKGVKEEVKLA
Method: HDAC1 inactivation kinetic constant was determined by curve-fitting of the plot to a first-order rate equation.

[12] = mice, single dose, Repligen 136 30 mg/kg, Compound 1 10 mg/kg

For `CC(=O)Nc1ccc(C(=O)Nc2ccc(F)cc2N)cc1` [Compound 1, 4-acetamido-N-(2-amino-4-fluorophenyl)benzamide], the “better brain exposure in comparison to Repligen 136 as measured by Cmax” value ([1]; dose normalized) was 30 times, the “better brain exposure in comparison to Repligen 136 measured by AUC” value ([1]; dose normalized) was 120 times and the “AUC Brain” value [1, 12] was 12.77 µM·h. For the same compound, the “Cmax Brain” value [1, 12] was 3.80 µM, the “concentration in the brain over time” value [1, 12] was “still present in the brain after 8 hours” and the half-life ([1]; brain, read-out: T1/2 Brain (converted)) was 2.06 h. The half-life ([1]; plasma, read-out: T1/2 Plasma (converted)) was 2.26 h, the “better plasma exposure as measured by AUC than Repligen 136” value ([1]; plasma) was 30 times and the IC50 [2] was greater than 33 µM. For the same compound, the “glucolipotoxicity-induced apoptosis in human islets” value [3] was “decreases glucolipotoxicity-induced apoptosis in human islets”, the Ki [4] was roughly 6.3 µM and the koff [4] was 0.000867 s⁻¹. For the same compound, the Ki ([4]; HDAC2) was 6.3 µM, the Kon ([4]; HDAC2) was 0.0082 min^−1, uM^−1 and ~0.0082 min^−1, uM^−1 and the koff ([4]; HDAC2) was 0.000867 s⁻¹. For the same compound, the “type of binding to HDAC2 (words)” value ([4]; HDAC2) was “fast off inhibitor”, the “type of binding to HDAC2 (words)” value ([4]; HDAC2, listed as compound 1) was “slow on/fast off rates” and the T1/2 ([4]; HDAC2 residence) was 0.217 h. For the same compound, the IC50 ([5]; read-out: HDAC2 IC50 3 h Prein, Table 2, 3 h preincubation) was 1.42 µM, the IC50 ([5]; read-out: HDAC2 IC50 3 h Preinc, Table 2A, 3 h preincubation) was 1.42 µM and the IC50 ([5]; read-out: HDAC2 IC50 @3 hr, 3 hr preincubation) was 1.42 µM. For the same compound, the IC50 [6] was greater than 33 µM, the “insulin gene Ins1 expression” value [7] was “partially restoring insulin gene Ins1 expression” and the “insulin gene Ins2 expression” value [7] was “partially restoring insulin gene Ins2 expression”. For the same compound, the “more potent inhibitor of HDAC3 than compounds 3 and 4” value ([8]; IC50, 3 h preincubation) was 5-10 times, the IC50 ([8]; read-out: HDAC3 IC50 3 h Prein, Table 2, 3 h preincubation) was 0.068 µM and the IC50 ([8]; read-out: HDAC3 IC50 3 h Preinc, Table 2A, 3 h preincubation) was 0.068 µM. For the same compound, the IC50 ([8]; read-out: HDAC3 IC50 @3 hr, 3 hr preincubation) was 0.068 µM, the glucose-stimulated insulin release [9] was “restoring insulin release” and the insulin content [9] was “restoring insulin content”. The koff [10] was 0.000147 s⁻¹, the Ki ([10]; HDAC3) was 0.029 µM and the Kon ([10]; HDAC3) was 0.30 min^−1, uM^−1 and 0.3 min^−1, uM^−1. For the same compound, the koff ([10]; HDAC3) was 0.000147 s⁻¹, the “type of binding to HDAC3 (words)” value ([10]; HDAC3) was “slow, tight-binding inhibitor” and the “type of binding to HDAC3 (words)” value ([10]; HDAC3, listed as compound 1) was “fast on/slow off binding”. The T1/2 ([10]; HDAC3 residence) was 1.32 h, the “binding selectivity (Ki) for HDAC3 versus HDAC1” value ([10]; thermodynamic (Ki)) was 175 fold and the “binding selectivity (Ki) for HDAC3 versus HDAC2” value ([10]; thermodynamic (Ki)) was 217 fold. For the same compound, the koff [11] was roughly 0.0045 s⁻¹, the Kon ([11]; HDAC1) was ~0.020 min^−1, uM^−1 and the koff ([11]; HDAC1) was roughly 0.0045 s⁻¹. For the same compound, the “type of binding to HDAC1 (words)” value ([11]; HDAC1) was “fast off inhibitor”, the “type of binding to HDAC1 (words)” value ([11]; HDAC1, listed as compound 1) was “slow on/fast off rates” and the T1/2 [11] was roughly 2.5 min. For the same compound, the T1/2 ([11]; listed as compound 1) was 2.5 min and the Ki ([11]; Ki, HDAC1, inhibition kinetics) was ~14 µM and 14 µM.
